Results taken from patent publication EP0195316A1, “Quinolonecarboxylic acid derivatives” (KYORIN PHARMACEUTICAL CO., LTD., priority 1985, dated 1986).
Values after ≈ are worked out from the molar mass of the structure shown. Where two headings read alike, the source gives them in different places.

Legend:
Assay type in all cases: cell-based
K. pneumoniae 1-220S = assay: MIC, in vitro antibacterial activity (standard strains); conditions: Klebsiella pneumoniae, 1220S; K. pneumoniae 1-220S, 10^6 cells/ml, Gram -; read-out: MIC
E. cloacae = assay: MIC, in vitro antibacterial activity (clinical isolates); conditions: Enterobacter cloacae
[1] = tested on: Proteus vulgaris IFO 3167; assay: MIC, in vitro antibacterial activity (standard strains); conditions: Proteus vulgaris, IFO3167
H. influenzae = assay: MIC, in vitro antibacterial activity (clinical isolates); conditions: Haemophilus influenzae, No. of strains 26
[2] = tested on: Pseudomonas aeruginosa V-1; assay: MIC, in vitro antibacterial activity (standard strains); conditions: V1; Pseudomonas aeruginosa V-1, 10^6 cells/ml, Gram -
[3] = tested on: Klebsiella pneumoniae KY(GN)6445; assay: as above
P. maltophilia = assay: MIC, in vitro antibacterial activity (clinical isolates); conditions: Stenotrophomonas maltophilia, No. of strains 9
F. varium KYA 8501 = assay: MIC, in vitro antibacterial activity (standard strains); conditions: Fusobacterium varium, KYA8501; F. varium KYA 8501, 10^6 cells/ml, Gram -; read-out: MIC
[4] = tested on: Veillonella parvula KYA 10790; assay: as above; conditions: KYA10790; Veillonella parvula KYA 10790, 10^6 cells/ml, Gram -
Acinetobacter sp. = assay: MIC, in vitro antibacterial activity (clinical isolates); conditions: clinical isolates Acinetobacter sp., No. of strains 13; read-out: MIC
P. morganii IID 602 = assay: MIC, in vitro antibacterial activity (standard strains); conditions: Morganella morganii, IID602; P. morganii IID 602, 10^6 cells/ml, Gram -
[5] = tested on: Bacillus subtilis PCI 219; assay: as above; conditions: PCI219; Bacillus subtilis PCI 219, 10^6 cells/ml, Gram +
Bacteroides sp. = assay: MIC, in vitro antibacterial activity (clinical isolates); conditions: No. of strains 17
Pst. microns UPI 5464-1 = assay: MIC, in vitro antibacterial activity (standard strains); conditions: Pst. microns UPI 5464-1, 10^6 cells/ml, Gram +
[6] = tested on: Bacteroides fragilis GM 7000; assay: as above; conditions: GM7000; Bacteroides fragilis GM 7000, 10^6 cells/ml, Gram -
P. mirabilis = assay: MIC, in vitro antibacterial activity (clinical isolates); conditions: Proteus mirabilis, No. of strains 10
[7] = tested on: Acinetobacter anitratus IID 876; assay: MIC, in vitro antibacterial activity (standard strains); conditions: Acinetobacter calcoaceticus, IID876; Acinetobacter anitratus IID 876, 10^6 cells/ml, Gram -
B. fragilis 8503 = assay: as above; conditions: Bacteroides fragilis; B. fragilis 8503, 10^6 cells/ml, Gram -
B. fragilis 25285 = assay: as above; conditions: Bacteroides fragilis; B. fragilis 25285, 10^6 cells/ml, Gram -
Alcaligenes sp. = assay: MIC, in vitro antibacterial activity (clinical isolates); conditions: No. of strains 9
P. aeruginosa IFO 1210 = tested on: P. aeruginosa IFO 1210
S. marcescens GN 7577 = tested on: S. marcescens GN 7577
S. pneumoniae = assay: MIC, in vitro antibacterial activity (clinical isolates); conditions: Streptococcus pneumoniae; clinical isolates S. pneumoniae, No. of strains 6; read-out: MIC
Shigella sonnei IID 969 = assay: MIC, in vitro antibacterial activity (standard strains); conditions: IID969; Shigella sonnei IID 969, 10^6 cells/ml, Gram -
Method: Minimal inhibitory concentrations (MICs) were determined in accordance with the method recommended by Japan Society of Chemotherapy.

[8] = tested on: Escherichia coli NIHJ JC-2; assay: as above; conditions: NIHJJC2; Escherichia coli NIHJ JC-2, 10^6 cells/ml, Gram -; read-out: MIC
S. aureus 209 P = tested on: S. aureus 209 P
B. catarrhalis = assay: MIC, in vitro antibacterial activity (clinical isolates); conditions: Moraxella catarrhalis; clinical isolates B. catarrhalis, No. of strains 21; read-out: MIC
[9] = tested on: Staphylococcus aureus 209 P; assay: MIC, in vitro antibacterial activity (standard strains); conditions: 10^6 cells/ml, Gram +
P. aeruginosa IFO 12689 = assay: as above; conditions: Pseudomonas aeruginosa, IFO12689; P. aeruginosa IFO 12689, 10^6 cells/ml, Gram -
S. epidermidis IID 866 = assay: as above; conditions: Staphylococcus epidermidis, IID866; S. epidermidis IID 866, 10^6 cells/ml, Gram +
P. vulgaris = assay: MIC, in vitro antibacterial activity (clinical isolates); conditions: Proteus vulgaris, No. of strains 6
[10] = tested on: Fusobacterium necrophorum S-45; assay: MIC, in vitro antibacterial activity (standard strains); conditions: S45; Fusobacterium necrophorum S-45, 10^6 cells/ml, Gram -
N. meningitidis = assay: MIC, in vitro antibacterial activity (clinical isolates); conditions: Neisseria meningitidis, No. of strains 3
E. cloacae IID 977 = tested on: E. cloacae IID 977
[11] = tested on: Alcaligenes faecalis 0104002; assay: MIC, in vitro antibacterial activity (standard strains); conditions: Alcaligenes faecalis 0104002, 10^6 cells/ml, Gram -; read-out: MIC
E. faecalis = assay: MIC, in vitro antibacterial activity (clinical isolates); conditions: Enterococcus faecalis, No. of strains 5
[12] = P. aeruginosa IFO 1210, Conc. of Drugs 2MIC
[13] = P. aeruginosa IFO 1210, Conc. of Drugs 4MIC
[14] = S. marcescens GN 7577, Conc. of Drugs 4MIC
[15] = S. marcescens GN 7577, Conc. of Drugs 8MIC
[16] = E. cloacae IID 977, Conc. of Drugs 2MIC
[17] = E. cloacae IID 977, Conc. of Drugs 4MIC

`NC1CCN(c2c(F)cc3c(=O)c(C(=O)O)cn(C4CC4)c3c2Cl)C1` (stereo not drawn) [Example 25, 7-(3-Amino-l-pyrrolidinyl)-8-chloro-l-cyclopropyl-6-fluoro-1,4-dihydro-4-oxo-3-quinolinecarboxylic acid] showed an MIC (K. pneumoniae 1-220S) of 0.05 µg/mL (≈ 0.137 µM), an MIC (E. cloacae) of 0.013 µg/mL (≈ 0.0355 µM) and an MIC [1] of 0.0125 µg/mL (≈ 0.0342 µM). The MIC (H. influenzae) was 0.013 µg/mL (≈ 0.0355 µM), the MIC [2] was 0.2 µg/mL (≈ 0.547 µM) and the MIC ([3]; Klebsiella pneumoniae) was 0.0125 µg/mL (≈ 0.0342 µM). The MIC (P. maltophilia) was 0.78 µg/mL (≈ 2.13 µM), the MIC (F. varium KYA 8501) was 0.78 µg/mL (≈ 2.13 µM) and the MIC [4] was 0.05 µg/mL (≈ 0.137 µM). It also gave an MIC (Acinetobacter sp.) of 0.1 µg/mL (≈ 0.273 µM), an MIC (P. morganii IID 602) of 0.05 µg/mL (≈ 0.137 µM) and an MIC [5] of 0.025 µg/mL. For the same molecule, the MIC (Bacteroides sp.) was 0.1 µg/mL (≈ 0.273 µM), the MIC (Pst. microns UPI 5464-1) was 0.05 µg/mL and the MIC [6] was 0.1 µg/mL (≈ 0.273 µM). For the same molecule, the MIC (P. mirabilis) was 0.05 µg/mL (≈ 0.137 µM), the MIC [7] was 0.05 µg/mL (≈ 0.137 µM) and the MIC (B. fragilis 8503) was 0.39 µg/mL (≈ 1.07 µM). The MIC (B. fragilis 25285) was 0.1 µg/mL (≈ 0.273 µM), the MIC (Alcaligenes sp.) was 0.78 µg/mL (≈ 2.13 µM) and the “Frequency of spontaneous resistant mutants” value (“Frequency” below) (P. aeruginosa IFO 1210; [12]) was <6.7 × 10^-10. For the same molecule, the “Frequency” value (P. aeruginosa IFO 1210; [13]) was <6.7 × 10^-10, the “Frequency” value (S. marcescens GN 7577; S. marcescens GN 7577, Conc. of Drugs 2MIC) was 2.3 × 10^-7 and the “Frequency” value (S. marcescens GN 7577; [14]) was <5.3 × 10^-10. The “Frequency” value (S. marcescens GN 7577; [15]) was <5.3 × 10^-10, the MIC (S. pneumoniae) was 0.1 µg/mL (≈ 0.273 µM) and the MIC (Shigella sonnei IID 969) was 0.0125 µg/mL (≈ 0.0342 µM). The MIC [8] was at most 0.006 µg/mL, the “Frequency” value (S. aureus 209 P; Conc. of Drugs 2MIC) was 2.9 × 10^-8 and the “Frequency” value (S. aureus 209 P; Conc. of Drugs 4MIC) was <2.9 × 10^-9. It also gave an MIC (B. catarrhalis) of 0.05 µg/mL (≈ 0.137 µM), an MIC [9] of 0.05 µg/mL and an MIC (P. aeruginosa IFO 12689) of 0.2 µg/mL (≈ 0.547 µM). The MIC (S. epidermidis IID 866) was 0.05 µg/mL, the MIC (P. vulgaris) was 0.05 µg/mL (≈ 0.137 µM) and the MIC [10] was 0.2 µg/mL (≈ 0.547 µM). For the same molecule, the MIC (N. meningitidis) was 0.006 µg/mL (≈ 0.0164 µM), the “Frequency” value (E. cloacae IID 977; [16]) was 6.7 × 10^-10 and the “Frequency” value (E. cloacae IID 977; [17]) was <6.7 × 10^-10. For the same molecule, the MIC [11] was 0.05 µg/mL (≈ 0.137 µM) and the MIC (E. faecalis) was 0.2 µg/mL (≈ 0.547 µM).

Work on `CC1CN(c2c(F)cc3c(=O)c(C(=O)O)cn(C4CC4)c3c2Cl)CCN1` (centres unmarked) [Ref.2, 8-Chloro-1-cyclopropyl-6-fluoro-1,4-dihydro-7-(3-methyl-1-piperazinyl)-4-oxo-3-quinolinecarboxylic acid] yielded an MIC (K. pneumoniae 1-220S) of 0.05 µg/mL (≈ 0.132 µM), an MIC (E. cloacae) of 0.05 µg/mL (≈ 0.132 µM) and an MIC [1] of 0.0125 µg/mL (≈ 0.0329 µM). For the same molecule, the MIC (H. influenzae) was 0.025 µg/mL (≈ 0.0658 µM), the MIC [2] was 0.2 µg/mL (≈ 0.527 µM) and the MIC ([3]; Klebsiella pneumoniae KY(GN)6445, 10^6 cells/ml, Gram -, read-out: MIC) was 0.025 µg/mL (≈ 0.0658 µM). For the same molecule, the MIC (P. maltophilia) was 1.56 µg/mL (≈ 4.11 µM), the MIC (F. varium KYA 8501) was 3.13 µg/mL (≈ 8.24 µM) and the MIC [4] was 0.2 µg/mL (≈ 0.527 µM). It also gave an MIC (Acinetobacter sp.) of 0.78 µg/mL (≈ 2.05 µM), an MIC (P. morganii IID 602) of 0.05 µg/mL (≈ 0.132 µM) and an MIC [5] of 0.025 µg/mL. It also gave an MIC (Bacteroides sp.) of 0.39 µg/mL (≈ 1.03 µM), an MIC (Pst. microns UPI 5464-1) of 0.2 µg/mL and an MIC [6] of 0.39 µg/mL (≈ 1.03 µM). For the same molecule, the MIC (P. mirabilis) was 0.05 µg/mL (≈ 0.132 µM), the MIC [7] was 0.05 µg/mL (≈ 0.132 µM) and the MIC (B. fragilis 8503) was 0.78 µg/mL (≈ 2.05 µM). The MIC (B. fragilis 25285) was 0.39 µg/mL (≈ 1.03 µM), the MIC (Alcaligenes sp.) was 6.25 µg/mL (≈ 16.5 µM) and the “Frequency” value (P. aeruginosa IFO 1210; [12]) was 7.7 × 10^-8. For the same molecule, the “Frequency” value (P. aeruginosa IFO 1210; [13]) was <6.7 × 10^-10, the “Frequency” value (S. marcescens GN 7577; [14]) was 9.9 × 10^-7 and the “Frequency” value (S. marcescens GN 7577; [15]) was 2.1 × 10^-9. For the same molecule, the MIC (S. pneumoniae) was 0.78 µg/mL (≈ 2.05 µM), the MIC (Shigella sonnei IID 969) was 0.0125 µg/mL (≈ 0.0329 µM) and the MIC [8] was at most 0.006 µg/mL. The “Frequency” value (S. aureus 209 P; Conc. of Drugs 4MIC) was 5.1 × 10^-8, the MIC (B. catarrhalis) was 0.05 µg/mL (≈ 0.132 µM) and the MIC [9] was 0.1 µg/mL. For the same molecule, the MIC (P. aeruginosa IFO 12689) was 1.56 µg/mL (≈ 4.11 µM), the MIC (S. epidermidis IID 866) was 0.1 µg/mL and the MIC (P. vulgaris) was 0.05 µg/mL (≈ 0.132 µM). For the same molecule, the MIC [10] was 0.39 µg/mL (≈ 1.03 µM), the MIC (N. meningitidis) was 0.006 µg/mL (≈ 0.0158 µM) and the “Frequency” value (E. cloacae IID 977; [16]) was 3.1 × 10^-7. The “Frequency” value (E. cloacae IID 977; [17]) was <6.7 × 10^-10, the MIC [11] was 0.2 µg/mL (≈ 0.527 µM) and the MIC (E. faecalis) was 0.78 µg/mL (≈ 2.05 µM).
